According to patent US20260083851A1 (AVILAR THERAPEUTICS, INC., priority 2022, published 2026):

Biological target: T1, ASGP receptor (biotinylated ASGPR) (Homo sapiens, UniProt P07306)
T1 construct: biotin (biotinylated)
T1 sequence (P07306 1-291): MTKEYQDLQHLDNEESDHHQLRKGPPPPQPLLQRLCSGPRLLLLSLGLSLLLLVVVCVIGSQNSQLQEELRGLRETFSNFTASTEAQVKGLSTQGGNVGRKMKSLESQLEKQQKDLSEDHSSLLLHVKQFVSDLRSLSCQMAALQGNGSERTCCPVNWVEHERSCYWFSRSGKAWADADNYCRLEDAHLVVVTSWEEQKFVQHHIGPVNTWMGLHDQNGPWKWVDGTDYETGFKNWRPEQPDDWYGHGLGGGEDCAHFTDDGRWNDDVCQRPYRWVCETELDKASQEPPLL
Format: binding
Conditions: SPR, Biacore 8K, 25° C.; Table 1A; read-out: ASGPR KD

Row | Compound | Kd [µM]
1 | OC[C@H]1O[C@H](c2ccccc2)[C@H](Nc2cncc(C(F)(F)F)n2)[C@@H](O)[C@H]1O [A105, (2R,3R,4R,5R,6R)-2-(hydroxymethyl)-6-phenyl-5-((6-(trifluoromethyl)pyrazin-2-yl)amino)tetrahydro-2H-pyran-3,4-diol] | < 10
2 | O[C@@H]1[C@H](O)[C@@H](Nc2cncc(C(F)(F)F)n2)CO[C@@H]1CN1CCN(Cc2ccccc2)CC1 [A9, (2R,3R,4R,5S)-2-((4-benzylpiperazin-1-yl)methyl)-5-((6-(trifluoromethyl)pyrazin-2-yl)amino)tetrahydro-2H-pyran-3,4-diol] | < 10
3 | O=C(O)CNC[C@H]1OC[C@H](Nc2cncc(C(F)(F)F)n2)[C@@H](O)[C@H]1O [A26, (((2R,3R,4R,5S)-3,4-dihydroxy-5-((6-(trifluoromethyl)pyrazin-2-yl)amino)tetrahydro-2H-pyran-2-yl)methyl)glycine] | < 10
4 | O=C(NC[C@H]1OC[C@H](Nc2cncc(C(F)(F)F)n2)[C@@H](O)[C@H]1O)c1cc(F)ccn1 [A39, N-(((2R,3R,4R,5S)-3,4-dihydroxy-5-((6-(trifluoromethyl)pyrazin-2-yl)amino)tetrahydro-2H-pyran-2-yl)methyl)-4-fluoropicolinamide] | < 10
5 | O=C(NC[C@H]1OC[C@H](Nc2cncc(C(F)(F)F)n2)[C@@H](O)[C@H]1O)c1ccc2[nH]cnc2n1 [A69, N-(((2R,3R,4R,5S)-3,4-dihydroxy-5-((6-(trifluoromethyl)pyrazin-2-yl)amino)tetrahydro-2H-pyran-2-yl)methyl)-1H-imidazo[4,5-b]pyridine-5-carboxamide] | < 10

Results, then the compound that gave them:

Row | Kd [µM] | Compound
6 | < 10 | OC[C@H]1O[C@@H](c2ccccc2)[C@H](Nc2nccc(C(F)(F)F)n2)[C@@H](O)[C@H]1O [A94, (2R,3R,4R,5R,6S)-2-(hydroxymethyl)-6-phenyl-5-((4-(trifluoromethyl)pyrimidin-2-yl)amino)tetrahydro-2H-pyran-3,4-diol]
7 | < 10 | O=C(NC[C@H]1OC[C@H](Nc2cncc(C(F)(F)F)n2)[C@@H](O)[C@H]1O)c1ncc(-c2ccccc2)cn1 [A75, N-(((2R,3R,4R,5S)-3,4-dihydroxy-5-((6-(trifluoromethyl)pyrazin-2-yl)amino)tetrahydro-2H-pyran-2-yl)methyl)-5-phenylpyrimidine-2-carboxamide]
8 | < 10 | O=C(NC[C@H]1OC[C@H](Nc2cncc(C(F)(F)F)n2)[C@@H](O)[C@H]1O)C1C[C@@H]2CC[C@H]1C2 (stereo partly drawn) [A18, (1S,4R)—N-(((2R,3R,4R,5S)-3,4-dihydroxy-5-((6-(trifluoromethyl)pyrazin-2-yl)amino)tetrahydro-2H-pyran-2-yl)methyl)bicyclo[2.2.1]heptane-2-carboxamide]
9 | < 10 | O=C(NC[C@H]1OC[C@H](Nc2cncc(C(F)(F)F)n2)[C@@H](O)[C@H]1O)c1ccc2occc2c1 [A11, N-(((2R,3R,4R,5S)-3,4-dihydroxy-5-((6-(trifluoromethyl)pyrazin-2-yl)amino)tetrahydro-2H-pyran-2-yl)methyl)benzofuran-5-carboxamide]
10 | < 10 | OC[C@H]1OC[C@H](Nc2cncc(Br)n2)[C@@H](O)[C@H]1O [A138, (2R,3R,4R,5S)-5-((6-bromopyrazin-2-yl)amino)-2-(hydroxymethyl) tetrahydro-2H-pyran-3,4-diol]

Same assay, conditions: SPR, Biacore 8K, 25° C.; Table 1B; read-out: ASGPR Kd

Row | Compound | Kd [µM]
11 | O[C@@H]1[C@H](O)[C@@H](Nc2cncc(F)n2)CO[C@@H]1COc1cncc(F)n1 [A154, (2R,3R,4R,5S)-5-((6-fluoropyrazin-2-yl)amino)-2-(((6-fluoropyrazin-2-yl)oxy)methyl)tetrahydro-2H-pyran-3,4-diol] | < 10
12 | O=C1c2ccccc2CN1C[C@H]1OC[C@H](Nc2cncc(C(F)(F)F)n2)[C@@H](O)[C@H]1O [A152, 2-(((2R,3R,4R,5S)-3,4-dihydroxy-5-((6-(trifluoromethyl)pyrazin-2-yl)amino)tetrahydro-2H-pyran-2-yl)methyl) isoindolin-1-one] | < 10

Same assay, conditions: SPR, Biacore 8K, 25° C.; Table 1C, numeric bound; read-out: ASGPR KD

Row | Compound | Kd [µM]
13 | CC#Cc1cccc(N[C@H]2CO[C@H](CO)[C@H](O)[C@@H]2O)n1 [A189, (2R,3R,4R,5S)-2-(hydroxymethyl)-5-((6-(prop-1-yn-1-yl)pyridin-2-yl)amino)tetrahydro-2H-pyran-3,4-diol] | > 30

Same assay, conditions: SPR, Biacore 8K, 25° C.; Table 1C; read-out: ASGPR KD

Row | Compound | Kd [µM]
14 | CC(C)(C)OC(=O)N1CCN(c2ccc(OC[C@H]3OC[C@H](Oc4cccc(C(F)(F)F)n4)[C@@H](O)[C@H]3O)cc2F)CC1 [A213, tert-butyl 4-(4-(((2R,3R,4S,5S)-3,4-dihydroxy-5-((6-(trifluoromethyl)pyridin-2-yl)oxy)tetrahydro-2H-pyran-2-yl)methoxy)-2-fluorophenyl) piperazine-1-carboxylate] | < 10
15 | CC(C)(C)OC(=O)N1CCC(Cc2ccc(OC[C@H]3OC[C@H](Oc4cccc(C(F)(F)F)n4)[C@@H](O)[C@H]3O)nn2)CC1 [A280] | < 10
16 | O=C(O)c1ccc(-c2ccc(OC[C@H]3OC[C@H](Nc4cccc(C(F)(F)F)n4)[C@@H](O)[C@H]3O)cc2)cc1 [A225, 4′-(((2R,3R,4R,5S)-3,4-dihydroxy-5-((6-(trifluoromethyl)pyridin-2-yl)amino)tetrahydro-2H-pyran-2-yl)methoxy)-[1,1′-biphenyl]-4-carboxylic acid] | < 10
17 | C[C@H]1O[C@H](c2cn(C3CCNCC3)nn2)[C@H](Oc2cccc(C(F)(F)F)n2)[C@@H](O)[C@H]1O [A218, (2R,3R,4S,5R,6R)-2-methyl-6-(1-(piperidin-4-yl)-1H-1,2,3-triazol-4-yl)-5-((6-(trifluoromethyl)pyridin-2-yl)oxy)tetrahydro-2H-pyran-3,4-diol] | < 10
18 | O[C@@H]1[C@H](O)[C@@H](Oc2cccc(C(F)(F)F)n2)CO[C@@H]1CN1CCC1 [A245] | < 10
19 | C[C@H]1O[C@H](c2cc[nH]n2)[C@H](Oc2cccc(C(F)(F)F)n2)[C@@H](O)[C@H]1O [A332] | < 10
20 | O=C(O)c1cnc(OC[C@H]2OC[C@H](Nc3cccc(C(F)(F)F)n3)[C@@H](O)[C@H]2O)cn1 [A309] | < 10
21 | C[C@H]1O[C@H](c2cn(C3CCN(C(=O)OC(C)(C)C)CC3)nn2)[C@H](Oc2cccc(C(F)(F)F)n2)[C@@H](O)[C@H]1O [A217, tert-butyl 4-(4-((2R,3R,4S,5R,6R)-4,5-dihydroxy-6-methyl-3-((6-(trifluoromethyl)pyridin-2-yl)oxy)tetrahydro-2H-pyran-2-yl)-1H-1,2,3-triazol-1-yl)piperidine-1-carboxylate] | < 10
22 | O[C@@H]1[C@H](O)[C@@H](Nc2cccc(C(F)(F)F)n2)CO[C@@H]1CN1CCc2ccccc2C1 [A268] | < 10
23 | O=C1CCCN1C[C@H]1OC[C@H](Oc2cccc(C(F)(F)F)n2)[C@@H](O)[C@H]1O [A258] | < 10
24 | CC[C@]1(COc2ccc(C(=O)O)nn2)O[C@H](O)[C@H](NC(=O)C(F)(F)F)[C@@H](O)[C@H]1O [A313] | < 10

Next, values leading:

Row | Kd [µM] | Compound
25 | < 10 | O[C@@H]1[C@H](O)[C@@H](Oc2cccc(C(F)(F)F)n2)CO[C@@H]1COc1cncnc1 [A289]
26 | < 10 | O[C@@H]1[C@H](O)[C@@H](Oc2cccc(C(F)(F)F)n2)CO[C@@H]1COc1cccnn1 [A216, (2R,3R,4S,5S)-2-((pyridazin-3-yloxy)methyl)-5-((6-(trifluoromethyl)pyridin-2-yl)oxy)tetrahydro-2H-pyran-3,4-diol]
27 | < 10 | O[C@@H]1[C@H](O)[C@@H](Oc2cccc(C(F)(F)F)n2)CO[C@@H]1CN1CCN(c2ncccn2)CC1 [A270]
28 | < 10 | O[C@@H]1[C@H](O)[C@@H](Oc2cccc(C(F)(F)F)n2)CO[C@@H]1COc1ccncc1 [A292]
29 | < 10 | NC[C@H]1OC[C@H](Oc2cccc(C(F)(F)F)n2)[C@@H](O)[C@H]1O [A192, (2R,3R,4S,5S)-2-(aminomethyl)-5-((6-(trifluoromethyl)pyridin-2-yl)oxy)tetrahydro-2H-pyran-3,4-diol]
30 | < 10 | CN1CCN(C[C@H]2OC[C@H](Oc3cccc(C(F)(F)F)n3)[C@@H](O)[C@H]2O)CC1 [A249]
31 | < 10 | O[C@@H]1[C@H](O)[C@@H](Nc2cncc(C(F)(F)F)n2)CO[C@@H]1C(F)F [A179, (2S,3R,4R,5S)-2-(difluoromethyl)-5-((6-(trifluoromethyl)pyrazin-2-yl)amino)tetrahydro-2H-pyran-3,4-diol]
32 | < 10 | O=C(O)COCCOCC(=O)NC[C@@]12CO[C@@H](O1)[C@H](Nc1cncc(C(F)(F)F)n1)[C@@H](O)[C@H]2O [A305]

Same assay, conditions: SPR, Biacore 8K, 25° C.; Table 1D, numeric bound; read-out: ASGPR KD

Row | Compound | Kd [µM]
33 | O=C(OCc1ccccc1)N1CC(Nc2cn[nH]c2)[C@@H](O)[C@@H](O)C1 (some centres unmarked) [A371] | > 30

Same assay, conditions: SPR, Biacore 8K, 25° C.; Table 1D; read-out: ASGPR KD

Row | Compound | Kd [µM]
34 | O[C@@H]1[C@@H](Nc2cncc(C(F)(F)F)n2)CN(c2cccnn2)C[C@@H]1O [A395] | < 10
35 | O[C@@H]1[C@@H](Nc2nc(Cl)nn3cccc23)CNC[C@@H]1O [A382] | 10 to 100

Second part, the compound after the results:

Row | Kd [µM] | Compound
36 | < 10 | CC(C)(C)OC(=O)N1CCC(N2C[C@H](Nc3cccc(C(F)(F)F)n3)[C@@H](O)[C@@H](O)C2)CC1 [A397]
37 | < 10 | O=C(OCc1ccccc1)N1C[C@H](Nc2nc(Cl)nn3cccc23)[C@@H](O)[C@@H](O)C1 [A380]
38 | < 10 | O[C@@H]1[C@@H](Nc2cncc(C(F)(F)F)n2)CN(c2ccc(C(F)(F)F)cn2)C[C@@H]1O [A377]
39 | < 10 | O=C(OCc1ccccc1)N1C[C@H](Nc2cncc(C(F)(F)F)n2)[C@@H](O)[C@@H](O)C1 [A361]

Same assay, conditions: SPR, Biacore 8K, 25° C.; Table 1E; read-out: ASGPR KD

Row | Compound | Kd [µM]
40 | C[C@H]1O[C@H](C#N)[C@H](Oc2cccc(C(F)(F)F)n2)[C@@H](O)[C@H]1O [A432] | < 10
41 | C[C@H]1O[C@H](c2nnc(-c3ccccc3)o2)[C@H](Oc2cccc(C(F)(F)F)n2)[C@@H](O)[C@H]1O [A448] | < 10
